Reference: ChEMBL document CHEMBL4699511, “Cedrol, a Sesquiterpene Alcohol, Enhances the Anticancer Efficacy of Temozolomide in Attenuating Drug Resistance via Regulation of the DNA Damage Response and MGMT Expression” (J Nat Prod, 2020)
Active and inactive are the calls of the source. The rule behind the calls is not given here.

Columns and labels:
DBTRG-05MG [1] = assay: Induction of cell cycle arrest in human DBTRG-05MG cells assessed as accumulation at G2/M phase at 206 uM after 12 hrs by propidium iodide staining based flow cytometric analysis (reference value: 30.08 +/- 0.1%); assay type: functional
DBTRG-05MG [2] = assay: Induction of cell cycle arrest in human DBTRG-05MG cells assessed as accumulation at S phase at 206 uM after 24 hrs by propidium iodide staining based flow cytometric analysis (reference value: 22.76 +/- 1.56%); assay type: functional
RG2 [3] = assay: Induction of cell cycle arrest in rat RG2 cells assessed as accumulation at S phase at 206 uM after 12 hrs by propidium iodide staining based flow cytometric analysis (reference value: 20.15 +/- 2.44%); assay type: functional
RG2 [4] = assay: Induction of cell cycle arrest in rat RG2 cells assessed as accumulation at G0/G1 phase at 206 uM after 24 hrs by propidium iodide staining based flow cytometric analysis (reference value: 57.81 +/- 1.9%); assay type: functional
RG2 [5] = assay: Induction of cell cycle arrest in rat RG2 cells assessed as accumulation at G2/M phase at 206 uM after 24 hrs by propidium iodide staining based flow cytometric analysis (reference value: 20.04 +/- 0.55%); assay type: functional
DBTRG-05MG [6] = assay: Induction of cell cycle arrest in human DBTRG-05MG cells assessed as CDK4 expression at 206 uM after 48 hrs by Western blot analysis (reference value: 1); assay type: functional
RG2 [7] = assay: Induction of cell cycle arrest in rat RG2 cells assessed as CyclinA expression at 206 uM after 48 hrs by Western blot analysis (reference value: 1); assay type: functional
RG2 [8] = assay: Induction of apoptosis in rat RG2 cells assessed as increase in DNA fragmentation at 206 uM after 48 hrs by TUNEL assay; assay type: functional, cell-based
RG2 [9] = assay: Induction of apoptosis in rat RG2 cells assessed as phosphorylated caspace-3 expression at 206 uM after 48 hrs by Western blot analysis (reference value: 1); assay type: functional
DBTRG-05MG [10] = assay: Antitumour activity against human DBTRG-05MG cells xenografted in BALB/c nude mouse assessed as reduction in tumour growth at 5 mg/kg, ip for 5 days and measured every 2 days; assay type: functional, organism-based; conditions: time 5.0 day
DBTRG-05MG [11] = assay: Synergistic cytotoxicity against human DBTRG-05MG cells assessed as combination index at 89.9 uM after 48 hrs in presence of 309 uM TMZ by MTT assay; assay type: functional
DBTRG-05MG [12] = assay: Synergistic cytotoxicity against human DBTRG-05MG cells assessed as combination index at 112.4 uM after 48 hrs in presence of 515.1 uM TMZ by MTT assay; assay type: functional
DBTRG-05MG [13] = assay: Synergistic cytotoxicity against human DBTRG-05MG cells assessed as combination index at 134.9 uM after 48 hrs in presence of 206 uM TMZ by MTT assay; assay type: functional
RG2 [14] = assay: Synergistic cytotoxicity against rat RG2 cells assessed as synergistic effect index at 112.4 uM after 48 hrs in presence of 206 uM TMZ by MTT assay; assay type: functional
RG2 [15] = assay: Synergistic cytotoxicity against rat RG2 cells assessed as combination index at 112.4 uM after 48 hrs in presence of 412.1 uM TMZ by MTT assay; assay type: functional
[16] = Synergistic cytotoxicity against rat CTX TNA2 cells assessed as synergistic effect index at 89.9 uM after 48 hrs in presence of 515.1 uM TMZ by MTT assay; assay type: cell-based; conditions: ctx tna2, 48 h
[17] = Synergistic cytotoxicity against rat CTX TNA2 cells assessed as combination index at 89.9 uM after 48 hrs in presence of 206 uM TMZ by MTT assay; assay type: cell-based; conditions: ctx tna2, 48 h
DBTRG-05MG [18] = assay: Induction of cell cycle arrest in human DBTRG-05MG cells assessed as accumulation at G0/G1 phase at 112.4 uM after 24 hrs by propidium iodide staining based flow cytometric analysis (reference value: 47.16 +/- 1.55%); assay type: functional
DBTRG-05MG [19] = assay: Induction of cell cycle arrest in human DBTRG-05MG cells assessed as accumulation at S phase at 112.4 uM after 24 hrs by propidium iodide staining based flow cytometric analysis (reference value: 22.76 +/- 1.56%); assay type: functional
DBTRG-05MG [20] = assay: Induction of cell cycle arrest in human DBTRG-05MG cells assessed as accumulation at S phase at 112.4 uM after 24 hrs in presence of TMZ by propidium iodide staining based flow cytometric analysis (reference value: 22.76 +/- 1.56%); assay type: functional
DBTRG-05MG [21] = assay: Induction of cell cycle arrest in human DBTRG-05MG cells assessed as accumulation at G2/M phase at 112.4 uM after 24 hrs in presence of TMZ by propidium iodide staining based flow cytometric analysis (reference value: 30.08 +/- 0.1%); assay type: functional
DBTRG-05MG [22] = assay: Induction of cell cycle arrest in human DBTRG-05MG cells assessed as accumulation at G0/G1 phase at 112.4 uM after 48 hrs in presence of TMZ by propidium iodide staining based flow cytometric analysis (reference value: 47.16 +/- 1.55%); assay type: functional
RG2 [23] = assay: Induction of cell cycle arrest in rat RG2 cells assessed as accumulation at G0/G1 phase at 112.4 uM after 24 hrs by propidium iodide staining based flow cytometric analysis (reference value: 57.81 +/- 1.9%); assay type: functional
[24] = Effect on p38 expression in human DBTRG-05MG cells at 112.4uM after 48 hrs by Western blot analysis (reference value: 1); assay type: functional
[25] = Effect on AKT expression in rat RG2 cells at 112.4uM after 48 hrs by Western blot analysis (reference value: 1); assay type: functional
RG2 [26] = assay: Inhibition of p38 phosphorylation at Tyr182 residues in rat RG2 cells at 112.4uM after 48 hrs by Western blot analysis (reference value: 1); assay type: cell-based
DBTRG-05MG [27] = assay: Induction of apoptosis in human DBTRG-05MG cells assessed as increase in chromatin condensation at 112.4 uM after 48 hrs by TUNEL assay; assay type: functional, cell-based
RG2 [28] = assay: Induction of apoptosis in rat RG2 cells assessed as increase in apoptotic body formation at 112.4 uM after 48 hrs by TUNEL assay; assay type: functional, cell-based
DBTRG-05MG [29] = assay: Induction of DNA damage in human DBTRG-05MG cells at 112.4 uM after 48 hrs in presence of TMZ by p.H2A.X staining based fluorescent immunocytochemistry method; assay type: functional, cell-based
DBTRG-05MG [30] = assay: Induction of DNA damage in human DBTRG-05MG cells assessed as Chk2 phosphorylation at Thr68 residues at 112.4 uM after 48 hrs in presence of TMZ by Western blot analysis (reference value: 1); assay type: functional
[31] = Inhibition of TMZ-induced drug resistance in human DBTRG-05MG cells assessed as CD133 expression at 112.4 uM after 48 hrs by Western blot analysis (reference value: 2.3); assay type: functional
[32] = Inhibition of TMZ-induced drug resistance in rat RG2 cells assessed as MGMT expression at 112.4 uM after 48 hrs by Western blot analysis (reference value: 2); assay type: functional
DBTRG-05MG [33] = assay: Potentiation of TMZ-induced antitumor activity against human DBTRG-05MG cells xenografted in BALB/c nude mouse assessed as increase in apoptotic cells at 75 mg/kg, sc co-treated with TMZ for 18 days by TUNEL assay; assay type: functional, organism-based; conditions: time 18.0 day

Q: With `Cn1nnc2c(C(N)=O)ncn2c1=O` [TEMOZOLOMIDE] as the compound, how does the Activity (DBTRG-05MG [1]) read?
A: 35.43%

Q: What about the Activity (DBTRG-05MG [2]) of the same compound?
A: 25.43%

Q: What about the Activity (RG2 [3]) of the same compound?
A: 22.12%

Q: What about the Activity (RG2 [4]) of the same compound?
A: 52.7%

Q: What about the Activity (RG2 [5]) of the same compound?
A: 31.81%

Q: What about the “fold change (FC)” value (DBTRG-05MG [6]) of the same compound?
A: 0.7

Q: What about the “fold change (FC)” value (RG2 [7]) of the same compound?
A: 1.9

Q: What about the Activity (RG2 [8]) of the same compound?
A: Active

Q: And the “fold change (FC)” value (RG2 [9])?
A: 1.1

Q: And the Activity (DBTRG-05MG [10])?
A: Active

Q: Which CI (DBTRG-05MG [11]) does the source give for `C[C@@H]1CC[C@H]2C(C)(C)[C@H]3C[C@@]12CC[C@@]3(C)O` [CEDROL] here?
A: 0.74

Q: What about the CI (DBTRG-05MG [12]) of the same compound?
A: 0.7

Q: What about the CI (DBTRG-05MG [13]) of the same compound?
A: 0.59

Q: What about the Activity_index (RG2 [14]) of the same compound?
A: 0.87

Q: What about the CI (RG2 [15]) of the same compound?
A: 0.99

Q: And the Activity_index [16]?
A: 0.68

Q: And the CI [17]?
A: 1.13

Q: What about the Activity (DBTRG-05MG [18]) of the same compound?
A: 57.59%

Q: And the Activity (DBTRG-05MG [19])?
A: 16.03%

Q: What about the Activity (DBTRG-05MG [20]) of the same compound?
A: 14.17%

Q: And the Activity (DBTRG-05MG [21])?
A: 36.89%

Q: What about the Activity (DBTRG-05MG [22]) of the same compound?
A: 41.16%

Q: What about the Activity (RG2 [23]) of the same compound?
A: 72.5%

Q: What about the “fold change (FC)” value [24] of the same compound?
A: 1.1

Q: What about the “fold change (FC)” value [25] of the same compound?
A: 0.6

Q: And the fold change (FC) (RG2 [26])?
A: 1.3

Q: And the Activity (DBTRG-05MG [27])?
A: Active

Q: And the Activity (RG2 [28])?
A: Active

Q: What about the Activity (DBTRG-05MG [29]) of the same compound?
A: Active

Q: What about the “fold change (FC)” value (DBTRG-05MG [30]) of the same compound?
A: 2.6

Q: What about the “fold change (FC)” value [31] of the same compound?
A: 1.5

Q: What about the “fold change (FC)” value [32] of the same compound?
A: 0.5

Q: What about the Activity (DBTRG-05MG [33]) of the same compound?
A: Active
